According to patent publication US20260297085A1, “1 H-PYRROLO[2,3-B]PYRIDIN-4-YL]-2-OXOPYRROLIDINE-3-CARBONITRILE DERIVATIVES AS TYROSINE KINASE 2 (TYK2) INHIBITORS FOR THE TREATMENT OF INFLAMMATORY DISEASES” (BIOGEN MA INC., priority 2023, published 2026):
Counter-ions that a name gives are not always drawn.

Tests used:
[1] = molecular target: T1, human TYK2 kinase domain (JH1) (Homo sapiens, UniProt P29597); assay: JH1 biochemical assay for TYK2 (ADP-Glo kinase assay, recombinant JH1 catalytic domain, JAK3-974 peptide, 10 μM ATP)
T1 construct: recombinantly generated catalytic kinase (also known as JH1) domain of human JAK1, JAK2, JAK3 and TYK2
T1 sequence (P29597 897-1176 limits assumed): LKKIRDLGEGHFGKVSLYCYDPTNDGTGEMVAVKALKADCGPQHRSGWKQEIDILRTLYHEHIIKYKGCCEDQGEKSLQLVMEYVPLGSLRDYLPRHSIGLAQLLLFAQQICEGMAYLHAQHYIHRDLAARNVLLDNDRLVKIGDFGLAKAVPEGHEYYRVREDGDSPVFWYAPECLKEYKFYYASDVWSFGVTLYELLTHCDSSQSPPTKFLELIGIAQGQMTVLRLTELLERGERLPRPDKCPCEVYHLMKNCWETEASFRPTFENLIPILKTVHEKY
Summary of the method: (§1)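 Luminescent ADP read-out after residual ATP depletion, 100 min reaction. Kinase domain concentrations were 4 nM (JAK1), 0.2 nM (JAK2), 0.3 nM (JAK3) and 2 nM (TYK2), each with 50 μM peptide. IC50 values came from 4-parameter logistic fits over 11 points, 3-fold steps, top 10 μM or 1 μM.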

[2] = molecular target: JAK2 kinase activity on STAT5 in TF1 cells (Homo sapiens, UniProt O60674); assay: pSTAT5 cell assay (MSD; TF1 cells, 30 ng/mL IL-3 stimulation); type: cell-based; conditions: 30 ng/mL IL-3, 15 minutes
JAK2 kinase activity on STAT5 in TF1 cells, sequence (O60674 whole entry): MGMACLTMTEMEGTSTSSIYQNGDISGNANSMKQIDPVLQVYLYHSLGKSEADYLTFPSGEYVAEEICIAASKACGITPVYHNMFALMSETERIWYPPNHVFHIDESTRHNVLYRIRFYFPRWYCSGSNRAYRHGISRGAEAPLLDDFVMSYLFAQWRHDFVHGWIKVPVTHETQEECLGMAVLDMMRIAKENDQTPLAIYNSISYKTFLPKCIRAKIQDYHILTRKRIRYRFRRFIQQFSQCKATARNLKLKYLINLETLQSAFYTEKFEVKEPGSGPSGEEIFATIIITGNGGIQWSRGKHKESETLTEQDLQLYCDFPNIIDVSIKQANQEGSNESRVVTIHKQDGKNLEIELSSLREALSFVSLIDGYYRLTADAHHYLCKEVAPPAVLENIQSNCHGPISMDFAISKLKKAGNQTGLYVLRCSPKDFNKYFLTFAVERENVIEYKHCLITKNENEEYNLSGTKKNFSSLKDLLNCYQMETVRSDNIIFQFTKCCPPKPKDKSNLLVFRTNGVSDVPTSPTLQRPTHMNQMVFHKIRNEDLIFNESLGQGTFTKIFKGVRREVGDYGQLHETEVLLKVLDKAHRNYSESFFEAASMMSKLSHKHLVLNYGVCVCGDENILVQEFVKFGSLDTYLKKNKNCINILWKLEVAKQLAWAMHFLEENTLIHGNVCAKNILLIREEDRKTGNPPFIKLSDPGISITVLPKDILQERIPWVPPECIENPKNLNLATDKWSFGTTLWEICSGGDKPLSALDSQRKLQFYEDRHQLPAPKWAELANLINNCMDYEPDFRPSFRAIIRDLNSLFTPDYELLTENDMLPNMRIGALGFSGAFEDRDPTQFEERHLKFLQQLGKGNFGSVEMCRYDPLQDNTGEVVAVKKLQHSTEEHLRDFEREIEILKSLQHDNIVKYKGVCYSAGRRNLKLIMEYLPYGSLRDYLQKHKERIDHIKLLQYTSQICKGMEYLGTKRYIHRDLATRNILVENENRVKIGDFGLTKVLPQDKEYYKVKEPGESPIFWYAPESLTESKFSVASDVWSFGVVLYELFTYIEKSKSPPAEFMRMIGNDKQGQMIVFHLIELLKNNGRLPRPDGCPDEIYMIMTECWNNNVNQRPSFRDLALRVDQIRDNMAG
Summary of the method: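 IC50 from a 4-parameter logistic fit of normalized pSTAT5 signal, measured by MSD in lysates of TF1 cells. Cells were serum-starved, exposed to compound for 1 h (top concentration 10 μM, four-fold, 10 points), then given IL-3 at 30 ng/mL for 15 min.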

[3] = molecular target: T2, human JAK1 kinase domain (JH1) (Homo sapiens, UniProt P23458); assay: JH1 biochemical assay for JAK1 (ADP-Glo kinase assay, recombinant JH1 catalytic domain, JAK3-342 peptide, 35 μM ATP)
T2 construct: recombinantly generated catalytic kinase (also known as JH1) domain of human JAK1, JAK2, JAK3 and TYK2
T2 sequence (P23458 875-1153 limits assumed): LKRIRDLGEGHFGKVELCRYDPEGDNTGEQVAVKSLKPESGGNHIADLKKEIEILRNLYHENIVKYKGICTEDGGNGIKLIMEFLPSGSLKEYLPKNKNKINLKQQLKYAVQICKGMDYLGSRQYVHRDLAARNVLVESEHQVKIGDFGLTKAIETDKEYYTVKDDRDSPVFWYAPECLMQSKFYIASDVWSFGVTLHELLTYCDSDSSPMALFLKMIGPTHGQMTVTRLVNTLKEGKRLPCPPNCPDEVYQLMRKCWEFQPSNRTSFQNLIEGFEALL
Summary of the method: as §1

[4] = molecular target: T3, human JAK2 kinase domain (JH1) (Homo sapiens, UniProt O60674); assay: JH1 biochemical assay for JAK2 (ADP-Glo kinase assay, recombinant JH1 catalytic domain, JAK3-974 peptide, 15 μM ATP)
T3 construct: recombinantly generated catalytic kinase (also known as JH1) domain of human JAK1, JAK2, JAK3 and TYK2
T3 sequence (O60674 849-1124 limits assumed): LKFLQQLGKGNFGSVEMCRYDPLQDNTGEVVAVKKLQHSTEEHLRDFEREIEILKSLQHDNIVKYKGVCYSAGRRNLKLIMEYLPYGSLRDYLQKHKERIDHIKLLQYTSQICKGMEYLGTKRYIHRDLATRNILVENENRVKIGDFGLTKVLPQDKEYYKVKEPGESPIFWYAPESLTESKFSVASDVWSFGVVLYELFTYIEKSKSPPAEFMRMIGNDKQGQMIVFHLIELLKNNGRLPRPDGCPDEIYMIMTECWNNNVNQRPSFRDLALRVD
Summary of the method: as §1

[5] = molecular target: Tyk2 kinase activity on STAT4 in NK92 cells (Homo sapiens, UniProt P29597); assay: pSTAT4 cell assay (MSD; NK92 cells, 30 ng/mL IL2 stimulation); type: cell-based; conditions: 30 ng/mL IL2, 15 minutes
Tyk2 kinase activity on STAT4 in NK92 cells, sequence (P29597 whole entry): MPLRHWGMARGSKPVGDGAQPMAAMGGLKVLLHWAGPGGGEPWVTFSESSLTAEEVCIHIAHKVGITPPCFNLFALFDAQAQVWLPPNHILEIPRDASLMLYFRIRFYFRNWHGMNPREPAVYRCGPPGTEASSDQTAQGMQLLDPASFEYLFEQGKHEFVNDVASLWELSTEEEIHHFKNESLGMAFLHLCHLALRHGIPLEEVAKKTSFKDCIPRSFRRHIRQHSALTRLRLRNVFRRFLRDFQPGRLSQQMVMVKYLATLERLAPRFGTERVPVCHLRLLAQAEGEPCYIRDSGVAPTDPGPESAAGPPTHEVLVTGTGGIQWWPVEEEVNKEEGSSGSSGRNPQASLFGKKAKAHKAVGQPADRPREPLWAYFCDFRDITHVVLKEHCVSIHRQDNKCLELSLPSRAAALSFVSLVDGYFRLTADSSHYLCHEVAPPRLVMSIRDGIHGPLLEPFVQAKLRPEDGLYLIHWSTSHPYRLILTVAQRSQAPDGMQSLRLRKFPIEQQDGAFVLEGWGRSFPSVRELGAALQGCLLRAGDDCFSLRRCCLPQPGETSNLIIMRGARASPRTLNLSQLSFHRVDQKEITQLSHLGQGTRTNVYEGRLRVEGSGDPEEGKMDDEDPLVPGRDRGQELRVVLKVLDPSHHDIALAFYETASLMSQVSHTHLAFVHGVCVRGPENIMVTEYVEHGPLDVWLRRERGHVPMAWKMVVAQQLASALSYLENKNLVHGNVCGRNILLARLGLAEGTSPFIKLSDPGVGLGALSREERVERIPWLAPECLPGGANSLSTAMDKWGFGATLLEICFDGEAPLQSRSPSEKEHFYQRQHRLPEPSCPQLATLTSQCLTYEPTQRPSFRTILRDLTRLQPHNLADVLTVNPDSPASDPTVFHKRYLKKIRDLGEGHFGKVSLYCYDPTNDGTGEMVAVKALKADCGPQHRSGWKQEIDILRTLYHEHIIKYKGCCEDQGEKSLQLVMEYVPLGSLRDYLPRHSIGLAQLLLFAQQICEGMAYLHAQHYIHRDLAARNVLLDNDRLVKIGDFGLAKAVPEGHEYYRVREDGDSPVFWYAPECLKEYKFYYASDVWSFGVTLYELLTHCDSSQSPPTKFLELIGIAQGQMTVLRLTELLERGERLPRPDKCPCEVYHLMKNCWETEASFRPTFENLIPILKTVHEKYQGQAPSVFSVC
Summary of the method: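 IC50 values come from 4-parameter logistic fits of normalized percent activity. Phospho-STAT was read by MSD (anti-STAT4 antibodies) in NK92 lysates after a 15 min stimulation with 30 ng/mL IL2. The serum-starved cells had been given compound for 1 h (10 points, four-fold, top 10 μM).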

[6] = molecular target: T4, human JAK3 kinase domain (JH1) (Homo sapiens, UniProt P52333); assay: JH1 biochemical assay for JAK3 (ADP-Glo kinase assay, recombinant JH1 catalytic domain, JAK3-974 peptide, 4 μM ATP)
T4 construct: recombinantly generated catalytic kinase (also known as JH1) domain of human JAK1, JAK2, JAK3 and TYK2
T4 sequence (P52333 822-1111 limits assumed): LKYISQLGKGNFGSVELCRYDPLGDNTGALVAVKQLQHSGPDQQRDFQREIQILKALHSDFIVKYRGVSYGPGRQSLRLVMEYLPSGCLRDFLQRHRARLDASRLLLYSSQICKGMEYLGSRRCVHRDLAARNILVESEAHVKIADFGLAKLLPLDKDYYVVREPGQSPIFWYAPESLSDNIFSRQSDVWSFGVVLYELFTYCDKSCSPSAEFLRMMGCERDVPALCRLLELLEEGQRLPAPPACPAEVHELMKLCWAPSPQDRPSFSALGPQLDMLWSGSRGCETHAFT
Summary of the method: as §1

[7] = molecular target: JAK1 kinase activity on STAT3 in TF1 cells (Homo sapiens, UniProt P23458); assay: pSTAT3 cell assay (MSD; TF1 cells, 30 ng/mL IL-6 stimulation); type: cell-based; conditions: 30 ng/mL IL-6, 15 minutes
JAK1 kinase activity on STAT3 in TF1 cells, sequence (P23458 whole entry): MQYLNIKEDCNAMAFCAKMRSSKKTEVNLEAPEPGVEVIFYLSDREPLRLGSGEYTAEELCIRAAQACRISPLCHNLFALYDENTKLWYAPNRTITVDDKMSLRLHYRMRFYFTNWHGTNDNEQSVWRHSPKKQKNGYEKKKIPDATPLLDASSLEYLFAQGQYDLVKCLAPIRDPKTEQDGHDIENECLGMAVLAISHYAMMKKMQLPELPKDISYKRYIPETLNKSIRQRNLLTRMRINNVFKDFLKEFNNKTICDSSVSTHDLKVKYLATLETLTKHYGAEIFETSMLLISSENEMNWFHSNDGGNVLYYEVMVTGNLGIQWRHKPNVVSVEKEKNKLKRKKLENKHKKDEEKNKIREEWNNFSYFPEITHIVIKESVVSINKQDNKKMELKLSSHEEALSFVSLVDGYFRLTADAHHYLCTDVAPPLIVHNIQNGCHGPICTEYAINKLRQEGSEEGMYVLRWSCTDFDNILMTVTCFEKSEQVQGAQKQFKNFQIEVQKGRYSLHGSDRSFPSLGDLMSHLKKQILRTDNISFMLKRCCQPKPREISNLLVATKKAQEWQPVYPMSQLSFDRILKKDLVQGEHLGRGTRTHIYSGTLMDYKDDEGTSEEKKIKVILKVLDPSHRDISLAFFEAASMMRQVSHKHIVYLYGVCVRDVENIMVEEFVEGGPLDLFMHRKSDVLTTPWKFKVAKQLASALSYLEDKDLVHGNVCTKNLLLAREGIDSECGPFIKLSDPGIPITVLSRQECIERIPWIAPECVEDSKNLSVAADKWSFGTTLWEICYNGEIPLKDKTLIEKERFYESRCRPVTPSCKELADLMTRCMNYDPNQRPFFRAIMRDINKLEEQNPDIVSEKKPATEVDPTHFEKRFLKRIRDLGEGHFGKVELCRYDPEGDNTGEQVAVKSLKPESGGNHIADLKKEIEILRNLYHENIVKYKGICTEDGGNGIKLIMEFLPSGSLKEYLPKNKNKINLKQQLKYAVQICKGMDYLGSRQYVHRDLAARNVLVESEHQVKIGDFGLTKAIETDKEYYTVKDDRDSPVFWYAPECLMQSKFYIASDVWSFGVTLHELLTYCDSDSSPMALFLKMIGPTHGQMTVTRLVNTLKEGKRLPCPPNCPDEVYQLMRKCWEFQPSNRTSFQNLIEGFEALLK
Summary of the method: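 IC50 values derive from 4-parameter logistic fits of normalized pSTAT3 signal, measured by MSD with anti-STAT3 antibodies. TF1 cells, serum-starved beforehand, received compound for 1 hour (top concentration 10 μM, four-fold steps, 10 points) before a 15-minute IL-6 (30 ng/mL) stimulus.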

Compound	IC50 ([1]; TYK2 JH1, ADP-Glo) [nM]	IC50 [2] [nM]	IC50 ([3]; JAK1 JH1, ADP-Glo) [nM]	IC50 ([4]; JAK2 JH1, ADP-Glo) [nM]	IC50 [5] [nM]	IC50 ([6]; JAK3 JH1, ADP-Glo) [nM]	IC50 [7] [nM]	IC50 ([1]; JH1 kinase domain, ADP-Glo) [nM]	IC50 ([3]; JH1 kinase domain, ADP-Glo) [nM]	IC50 ([4]; JH1 kinase domain, ADP-Glo) [nM]	IC50 ([6]; JH1 kinase domain, ADP-Glo) [nM]
C[C@@H]1CN(c2nc(-c3cnn([C@H]4C[C@H](C#N)C4)c3)cn3ncc(F)c23)C(=O)[C@]1(C#N)C1CC1 [Example 293, (3R,4S)-1-(6-(1-((1r,3R)-3-cyanocyclobutyl)-1H-pyrazol-4-yl)-3-fluoropyrazolo[1,5-a]pyrazin-4-yl)-3-cyclopropyl-4-methyl-2-oxopyrrolidine-3-carbonitrile]	< 5	100 to 1000	< 100	< 100	20 to 50	< 100	100 to 1000				
COc1cc(-c2cc3c(N4CC[C@@](C#N)(C5CC5)C4=O)ccnn3c2)ccn1 [Example 8, (S)-3-cyclopropyl-1-(6-(2-methoxypyridin-4-yl)pyrrolo[1,2-b]pyridazin-4-yl)-2-oxopyrrolidine-3-carbonitrile]		1000 to 5000			> 100		1000 to 5000	5 to 20	100 to 1000	100 to 1000	100 to 1000
[2H]C([2H])([2H])n1cc(-c2cc3c(N4C[C@@H](C)[C@@](C#N)(C5CC5)C4=O)ccnn3c2)cn1 [Example 164, (3R,4 S)-3-cyclopropyl-4-methyl-1-(6-(1-(methyl-d3)-1H-pyrazol-4-yl)pyrrolo[1,2-b]pyridazin-4-yl)-2-oxopyrrolidine-3-carbonitrile]		5000 to 10000			20 to 50		1000 to 5000	< 5	< 100	100 to 1000	< 100
C[C@@H]1CN(c2nc(-c3cnn(CC4(C#N)CC4)c3)cn3ncc(F)c23)C(=O)[C@]1(C#N)C1CC1 [Example 302, (3R,4S)-1-(6-(1-((1-cyanocyclopropyl)methyl)-1H-pyrazol-4-yl)-3-fluoropyrazolo[1,5-a]pyrazin-4-yl)-3-cyclopropyl-4-methyl-2-oxopyrrolidine-3-carbonitrile]	< 5	1000 to 5000	< 100	< 100	50 to 100	< 100	100 to 1000				
C[C@@H]1CN(c2nc(-c3cnn(C)c3)cc3ncsc23)C(=O)[C@]1(C#N)C1CC1 [Example 284, (3R,4S)-3-cyclopropyl-4-methyl-1-(6-(1-methyl-1H-pyrazol-4-yl)thiazolo[5,4-c]pyridin-4-yl)-2-oxopyrrolidine-3-carbonitrile]	< 5	< 100	< 100	< 100	5 to 20	< 100	< 100				
C[C@@H]1CN(c2nc(-c3cnn(C4CC5(COC5)C4)c3)cn3nccc23)C(=O)[C@]1(C#N)C1CC1 [Example 289, (3R,4S)-1-(6-(1-(2-oxaspiro[3.3]heptan-6-yl)-1H-pyrazol-4-yl)pyrazolo[1,5-a]pyrazin-4-yl)-3-cyclopropyl-4-methyl-2-oxopyrrolidine-3-carbonitrile]	< 5	< 100	< 100	< 100	5 to 20	< 100	< 100				
Cc1nc(C)c(-c2cn3nccc3c(N3C[C@@H](C)[C@@](C#N)(C4CC4)C3=O)n2)s1 [Example 209, (3R,4S)-3-cyclopropyl-1-(6-(2,4-dimethylthiazol-5-yl)pyrazolo[1,5-a]pyrazin-4-yl)-4-methyl-2-oxopyrrolidine-3-carbonitrile]		5000 to 10000			> 100		1000 to 5000	5 to 20	< 100	100 to 1000	< 100
C[C@@H]1CN(c2nc(-c3cnc4c(c3)CC(=O)N4)cn3nccc23)C(=O)[C@]1(C#N)C1CC1 [Example 205, (3R,4S)-3-cyclopropyl-4-methyl-2-oxo-1-(6-(2-oxo-2,3-dihydro-1H-pyrrolo[2,3-b]pyridin-5-yl)pyrazolo[1,5-a]pyrazin-4-yl)pyrrolidine-3-carbonitrile]		5000 to 10000			> 100		1000 to 5000	< 5	< 100	< 100	< 100
C[C@@H]1CN(c2nc(-c3cnn(-c4ccccn4)c3)cn3nccc23)C(=O)[C@]1(C#N)C1CC1 [Example 296, (3R,4S)-3-cyclopropyl-4-methyl-2-oxo-1-(6-(1-(pyridin-2-yl)-1H-pyrazol-4-yl)pyrazolo[1,5-a]pyrazin-4-yl)pyrrolidine-3-carbonitrile]	< 5	1000 to 5000	< 100	100 to 1000	20 to 50	< 100	100 to 1000				
C[C@@H]1CN(c2nc(-c3cnc4c(c3)CCC(=O)N4)cn3nccc23)C(=O)[C@]1(C#N)C1CC1 [Example 204, (3R,4S)-3-cyclopropyl-4-methyl-2-oxo-1-(6-(7-oxo-5,6,7,8-tetrahydro-1,8-naphthyridin-3-yl)pyrazolo[1,5-a]pyrazin-4-yl)pyrrolidine-3-carbonitrile]		1000 to 5000			50 to 100		1000 to 5000	< 5	< 100	< 100	< 100
C[C@@H]1CN(c2ccnc3cc(-c4cnn(C5CC5)c4)oc23)C(=O)[C@]1(C#N)C1CC1 [Example 347, (3R,4S)-3-cyclopropyl-1-(2-(1-cyclopropyl-1H-pyrazol-4-yl)furo[3,2-b]pyridin-7-yl)-4-methyl-2-oxopyrrolidine-3-carbonitrile]	< 5	5000 to 10000	100 to 1000	100 to 1000	> 100	100 to 1000	1000 to 5000				
C[C@@H]1CN(c2ccnn3cc(-c4cnn(C5CC(F)(F)C5)c4)cc23)C(=O)[C@]1(C#N)C1CC1 [Example 157, (3R,4S)-3-cyclopropyl-1-(6-(1-(3,3-difluorocyclobutyl)-1H-pyrazol-4-yl)pyrrolo[1,2-b]pyridazin-4-yl)-4-methyl-2-oxopyrrolidine-3-carbonitrile]		1000 to 5000			50 to 100		100 to 1000	< 5	< 100	< 100	< 100
C[C@@H]1CN(c2cc(-c3cnn(C4COC4)c3)cc3ncsc23)C(=O)[C@]1(C#N)C1CC1 [Example 348, (3R,4S)-3-cyclopropyl-4-methyl-1-(5-(1-(oxetan-3-yl)-1H-pyrazol-4-yl)benzo[d]thiazol-7-yl)-2-oxopyrrolidine-3-carbonitrile]	< 5	100 to 1000	< 100	< 100	50 to 100	< 100	100 to 1000				
CC(=O)Nc1cc(-c2cn3nccc3c(N3C[C@@H](C)[C@@](C#N)(C4CC4)C3=O)n2)ccn1 [Example 228, N-(4-(4-((3R,4S)-3-cyano-3-cyclopropyl-4-methyl-2-oxopyrrolidin-1-yl)pyrazolo[1,5-a]pyrazin-6-yl)pyridin-2-yl)acetamide]	< 5	1000 to 5000	< 100	100 to 1000	50 to 100	< 100	100 to 1000				
C[C@@H]1CN(c2nc(-c3ccnc(F)c3)cn3nccc23)C(=O)[C@]1(C#N)C1CC1 [Example 237, (3R,4S)-3-cyclopropyl-1-(6-(2-fluoropyridin-4-yl)pyrazolo[1,5-a]pyrazin-4-yl)-4-methyl-2-oxopyrrolidine-3-carbonitrile trifluoroacetate]	5 to 20	5000 to 10000	< 100	100 to 1000	50 to 100	100 to 1000	100 to 1000				
C[C@@H]1CN(c2nc(-c3cnn(CC(F)F)c3)cc3ncsc23)C(=O)[C@]1(C#N)C1CC1 [Example 354, (3R,4S)-3-cyclopropyl-1-(6-(1-(2,2-difluoroethyl)-1H-pyrazol-4-yl)thiazolo[5,4-c]pyridin-4-yl)-4-methyl-2-oxopyrrolidine-3-carbonitrile]	< 5	< 100	< 100	< 100	20 to 50	< 100	< 100				
